Literature values in patent US12655168B2, “Isolation of steviol glycosides” (DSM IP ASSETS B.V., priority 2019, dated 2026).

Experiments:
[1] = Type II diabetics
[2] = mildly hypertensive patients
[3] = relative to sucrose
[4] = new hemihydrate crystal form; obtained after heating and cooling a 0.06% reb B solution to room temperature

## C=C1C[C@@]23CC[C@H]4[C@@](C)(CCC[C@@]4(C)C(=O)O[C@@H]4O[C@H](CO)[C@@H](O)[C@H](O)[C@H]4O)[C@@H]2CC[C@]1(O[C@@H]1O[C@H](CO)[C@@H](O)[C@H](O)[C@H]1O[C@@H]1O[C@H](CO)[C@@H](O)[C@H](O)[C@H]1O)C3 [Stevioside]
[1]
  effect on blood glucose levels: reduce blood glucose levels
[2]
  effect on blood pressure: reduce blood pressure

## C=C1C[C@@]23CC[C@H]4[C@@](C)(CCC[C@@]4(C)C(=O)O[C@@H]4O[C@H](CO)[C@@H](O)[C@H](O)[C@H]4O[C@@H]4O[C@H](CO)[C@@H](O)[C@H](O)[C@H]4O)[C@@H]2CC[C@]1(O[C@@H]1O[C@H](CO)[C@@H](O)[C@H](O[C@@H]2O[C@H](CO)[C@@H](O)[C@H](O)[C@H]2O)[C@H]1O[C@@H]1O[C@H](CO)[C@@H](O)[C@H](O)[C@H]1O)C3 [rebaudioside D]
[3]
  times sweeter than sucrose: about 200 times

## rebaudioside B
[4]
  solubility in water: 50 ppm
